Measured values: PubChem BioAssay (NCI)
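Test compounds were applied to cells in 96-well plates for 48 hours at 5 doses. Definition used: TGI = concentration required for complete inhibition of growth.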

How the values were obtained:
Assay in all cases: NCI-60 cell line screen, 48 h
A498 renal = tested on: A498 renal
ACHN renal = tested on: ACHN renal
CAKI-1 renal = tested on: CAKI-1 renal
HOP-92 NSCLC = tested on: HOP-92 NSCLC
IGROV1 ovarian = tested on: IGROV1 ovarian
MDA-N = tested on: MDA-N
NCI/ADR-RES ovarian = tested on: NCI/ADR-RES ovarian
SF-295 CNS = tested on: SF-295 CNS
SK-MEL-5 melanoma = tested on: SK-MEL-5 melanoma
SW-620 colon = tested on: SW-620 colon

CCC(c1nc2ccccc2c(=O)n1NC(=O)C(C)(C)C)C1(O)CCCCC1 (stereo not given)
TGI (A498 renal): > 100 µM | TGI (ACHN renal): > 100 µM | TGI (CAKI-1 renal): > 100 µM | TGI (HOP-92 NSCLC): > 100 µM | TGI (IGROV1 ovarian): > 100 µM | TGI (MDA-N): > 100 µM | TGI (NCI/ADR-RES ovarian): > 100 µM | TGI (SF-295 CNS): > 100 µM | TGI (SK-MEL-5 melanoma): > 100 µM | TGI (SW-620 colon): > 100 µM

COC(=O)C1(Cc2ccc3c(c2)CCC3)Cc2cc3c(cc2C1=O)CCC3 (stereo not given)
TGI (A498 renal): > 31.6 µM | TGI (ACHN renal): > 46.4 µM | TGI (CAKI-1 renal): > 31.6 µM | TGI (HOP-92 NSCLC): 42.9 µM | TGI (IGROV1 ovarian): > 46.4 µM | TGI (MDA-N): > 46.4 µM | TGI (NCI/ADR-RES ovarian): > 46.4 µM | TGI (SF-295 CNS): > 46.4 µM | TGI (SK-MEL-5 melanoma): 32.3 µM | TGI (SW-620 colon): > 46.4 µM

O=C(O)[C@H]1NC[C@@H]2ON=C(Br)[C@@H]21
TGI (A498 renal): > 100 µM | TGI (ACHN renal): > 100 µM | TGI (CAKI-1 renal): > 100 µM | TGI (HOP-92 NSCLC): > 100 µM | TGI (IGROV1 ovarian): > 100 µM | TGI (MDA-N): > 100 µM | TGI (NCI/ADR-RES ovarian): > 100 µM | TGI (SF-295 CNS): > 100 µM | TGI (SK-MEL-5 melanoma): > 100 µM | TGI (SW-620 colon): > 100 µM

COc1ccc(-c2cc(-c3ccc(Nc4ccnc5cc(C(F)(F)F)ccc45)cc3)[nH]c(=O)c2C#N)cc1
TGI (A498 renal): > 55.1 µM | TGI (ACHN renal): > 100 µM | TGI (CAKI-1 renal): > 100 µM | TGI (HOP-92 NSCLC): > 100 µM | TGI (IGROV1 ovarian): > 100 µM | TGI (MDA-N): 98.5 µM | TGI (NCI/ADR-RES ovarian): > 100 µM | TGI (SF-295 CNS): > 57.6 µM | TGI (SK-MEL-5 melanoma): > 100 µM | TGI (SW-620 colon): > 100 µM

O=c1[nH]c2cc([N+](=O)[O-])c(N(CCO)CCO)c([N+](=O)[O-])c2[nH]1
TGI (A498 renal): 66 µM | TGI (ACHN renal): > 100 µM | TGI (CAKI-1 renal): > 100 µM | TGI (HOP-92 NSCLC): > 100 µM | TGI (IGROV1 ovarian): > 100 µM | TGI (MDA-N): > 100 µM | TGI (NCI/ADR-RES ovarian): > 100 µM | TGI (SF-295 CNS): > 100 µM | TGI (SK-MEL-5 melanoma): 39.7 µM | TGI (SW-620 colon): > 100 µM

CC1(C)C(C(=O)OC(C#N)c2cccc(OCC(=O)OCc3ccccc3)c2)C1(C)C (stereo not given)
TGI (A498 renal): > 100 µM | TGI (ACHN renal): > 100 µM | TGI (CAKI-1 renal): > 100 µM | TGI (HOP-92 NSCLC): > 100 µM | TGI (IGROV1 ovarian): > 100 µM | TGI (MDA-N): > 100 µM | TGI (NCI/ADR-RES ovarian): > 100 µM | TGI (SF-295 CNS): > 100 µM | TGI (SK-MEL-5 melanoma): > 100 µM | TGI (SW-620 colon): > 100 µM

Cc1cc2nc(NS(=O)(=O)c3cc(C)c(Cl)cc3S)[nH]c2cc1C
TGI (A498 renal): > 100 µM | TGI (ACHN renal): > 100 µM | TGI (CAKI-1 renal): > 100 µM | TGI (HOP-92 NSCLC): > 100 µM | TGI (IGROV1 ovarian): > 100 µM | TGI (MDA-N): > 100 µM | TGI (NCI/ADR-RES ovarian): > 100 µM | TGI (SF-295 CNS): > 100 µM | TGI (SK-MEL-5 melanoma): > 100 µM | TGI (SW-620 colon): > 100 µM
